Results published in patent US6541492B1, “Thiazole derivatives as PPAR gamma ligands” (SmithKline Beecham Corporation, priority 1999, dated 2003).

Experiments:
[1] = tested on: C57BL/KsJ db/db mice; experiment: In vivo assay in db/db mice; conditions: male db/db mice, 50 mg/kg oral once daily, mean ± standard error
Description: Age and weight matched male C57BL/KsJ db/db mice (Jackson Labs, Bar Harbor, Me.) were housed 5 animals/cage at 72° F. and 50% relative humidity with a 12 h light and dark cycle, and fed chow diet (NIH R&M/Auto 6F-Ovals 5K67, PMI Feeds® Inc., Richmond, Ind.). Animals starting at 6 weeks of age were orally gavaged once daily (8:00-9:00 AM) with TPGS/PG (25/75) or 50 mg/kg the compound of Example 4 in TPGS/PG (25/75). After 2 weeks of dosing, the animals were anesthetized with isofluorane, blood was drawn by cardiac puncture, and non-fasting measurements of glucose, insulin, and glycosylated hemoglobin (GHB) were obtained. Blood glucose was determined using an automated chemistry analyzer (Technicon Axon). GHB measurements were performed using a Columnmate Analyzer (Helena Instrument). Insulin concentrations in serum were measured by chemiluminescence using an Origen Analyzer (Igen Inc.). Body weights were recorded at the beginning and end of the study. All data was calculated as the mean and standard error from experiments performed on ≧9 animals per treatment group.

[2] = tested on: C3H10T1/2 clone 8 murine fibroblasts; experiment: Osteoblast differentiation assay (alkaline phosphatase activity); format: cell-based
Description: C3H10T1/2 clone 8 murine fibroblasts (American Type Culture Collection) below passage 22 were maintained in Dulbecco's modified Eagle's medium (Life Technologies, Inc.) supplemented with 10% fetal calf serum and 100 units/mL penicillin G and 100 microgram/mL streptomycin. One day after passage into 96-well microtiter plates (12.5×10^3 cells/cm^2), the cells were treated with 625 nanomolar all-trans retinoic acid, 1 micromolar rosiglitazone and 1 micromolar insulin (Sigma, St. Louis, Mo.). Vehicle or test compounds, which had been solublized to 10 mM in DMSO and then serially diluted from 2e-5 M to 4e-8 M into medium, were added. After 7 days, alkaline phosphatase activity, a surrogate measure for osteogenesis, was determined using Sigma-Fast pNPP substrate (N-2770) according to the manufacturer's specifications (Sigma, St. Louis, Mo.) (see Paulik, M. A. and Lenhard, J. M., Cell Tissue Res., (1997), Vol. 290, pp 79-87). The substrate (50 microliters/well) was incubated with the cells at 37° C. for 10 min and the absorbance read at 405 nm. The % maximum stimulation of alkaline phosphatase activity was calculated relative to cells treated with 10 micromolar all-trans retinoic acid.

CCCCCC[C@@H]1S[C@@H](CC(=O)N(CCCC)CCCC)C(=O)N1CCCCc1ccc(C(=O)O)cc1 (relative stereo) [Example 4, (2S*,5S*)-4-(4-(4-Carboxyphenyl)butyl)-2-hexyl-4-oxo-5-thiazolidine N,N-Dibutylacetamide]
GBH ([1]; glycosylated hemoglobin, 2 weeks): 6.6 ± 0.3% | Glucose ([1]; 2 weeks, non-fasting blood): 380 ± 30 mg/dL | Body Weight Change ([1]; beginning to end of 2 week study): 1.1 ± 0.5 g | % Stimulation ([2]; % maximum stimulation of alkaline phosphatase activity relative to cells treated with 10 micromolar all-trans retinoic acid): 71% | pEC50 ([2]; alkaline phosphatase activity after 7 days, with 625 nanomolar all-trans retinoic acid, 1 micromolar rosiglitazone, 1 micromolar insulin): 5.7
